Data: patent publication US11903927B2, “Combination treatment of cancer” (Scandion Oncology A/S, priority 2016, dated 2024)
Like-named read-outs stand apart in the source and are kept apart here.

Tests used:
[1] = tested on: human HT29 colon cancer cell line; experiment: HT29 colon tumour xenograft; assay type: in vivo; conditions: mice; NS3728 80 mg/kg PO, paclitaxel 5 mg/kg IP, 5-flourouracil 30 mg/kg IP, alone or combined; dosing days 4-8, 11-15, 18-22
Experimental: The in vivo antitumor effect of NS3728 on the human HT29 colon cancer cell line were tested as monotherapy (80 mg/kg) respectively in combination with paclitaxel (5 mg/kg) or 5-flourouracil (30 mg/kg) in two independent experimental series. NS3728 was given per oral (PO), whereas both paclitaxel and 5-flourouracil were dosed intraperitoneally (IP) by injection.
The dosing occurred in periods (days 4-8; days 11-15, days 18-22) with daily dosing of both NS3728 and cytotoxic drug, interrupted by dosing holidays.

VRAC = conditions: read-out: IC50 as VRAC blocker; cited from earlier work
[2] = tested on: docetaxel resistant MCF-7 breast cancer cells; experiment: MTT cell viability, docetaxel resistant MCF-7; assay type: cell-based, human; conditions: 72 hours
Text: (§1) Breast cancer is a heterogenous disease and at least 6 subtypes of breast cancer have been described previously by Soerlie et al (PMID: 11553815). As a major difference, breast cancer can be divided into hormone (estrogen and progesterone) receptor positive and hormone receptor negative breast cancer. We have in our experiments included these two major subtypes. We established human breast cancer cell lines that are resistant to the chemotherapy docetaxel as described in Hansen et al 2015 (PMID: 25596703). These cell lines are MCF-7 and MDA-MB-231.
(§2) Subsequently, NS3728, docetaxel or combinations of the two drugs were added for 72 hours before cell viability was determined. […] Each data point was carried out in triplicate.

[3] = tested on: Docetaxel resistant MDA-MB-231 breast cancer cells; experiment: MTT cell viability, docetaxel resistant MDA-MB-231; assay type: cell-based, human
Text: as §1, §2

[4] = tested on: fulvestrant-resistant MCF-7/LCC9 cells; experiment: MTT cell viability, fulvestrant resistant MCF-7/LCC9; assay type: cell-based, human
Experimental: These cell lines are MCF-7/LCC2. We also established human breast cancer cell lines that are resistant to the anti-estrogen Fulvestrant as described in Brünner et al 1997 (PMID: 9270017). MCF-7 is an estrogen and progesterone receptor positive cell line.
as §2

[5] = Experimental: The in vivo anti-tumor effect of NS3728 on C6 glioma cells given either as monotherapy (40 mg/kg/day) or in combination with temozolomide (Temodal, 25 or 5 mg/kg/day) was tested in two separate experiments, using either the xenograft method or the subcutaneous air sac model (SAS; see Lichtenberg, J., P. J. Hjarnaa, P. E. Kristjansen, D. Hansen & L. Binderup: The rat subcutaneous air sac mode: A quantitative assay of antiangiogenesis in induced vessels Pharmacology & Toxicology, 1999, 84, 34-40).
In the first study 5 million C6 rat glioma cells were inoculated into the flank of Fisher rats.

C6 glioma cells = experiment: C6 glioma subcutaneous air sac (SAS) model; assay type: in vivo, rat; conditions: 2.5 million C6 cells on air sac membrane; NS3728 40 mg/kg/day oral, temozolomide 5 mg/kg/day, alone or combined; 10 days of treatment
Experimental: In the second study the tumour growth was retarded by inoculating only half the number of cells (2.5 million of C6 cells per animal) and making use of the subcutaneous air sac (SAS) technique. In brief, the rats were anaesthetized with CO2/O2 and 10-15 ml of air was introduced dorsally by subcutaneous injections to produce an air sac located approximately 4-5 cm behind the head. The wall of the air sac became progressively thicker with time and after 10-14 days a sufficient lining of cells with the appearance of a transparent membrane had been established. The C6 glioma cells were inoculated in the rats directly on the membrane. The treatment was started at the day of inoculation and the study was terminated on day 10 of treatment.

[6] = tested on: SN-38 resistant HCT116 CRC cancer cells; experiment: MTT cell viability, SN-38 resistant HCT116; assay type: cell-based, human
Experimental: (§3) These cell lines are HCT116, HT29 and LoVo.
(§4) Each data point was carried out in triplicate.

[7] = tested on: oxaliplatin resistant HT29 CRC cancer cells; experiment: MTT cell viability, oxaliplatin resistant HT29; assay type: cell-based, human
Experimental: as §3, §4

[8] = tested on: tamoxifen-resistant MCF-7/LCC2 cells; experiment: MTT cell viability, tamoxifen resistant MCF-7/LCC2; assay type: cell-based, human; conditions: 40 μM NS3728, 72 hours
Experimental: These cell lines are MCF-7/LCC2. We also established human breast cancer cell lines that are resistant to the anti-estrogen Fulvestrant as described in Brünner et al 1997 (PMID: 9270017). MCF-7 is an estrogen and progesterone receptor positive cell line. […] Subsequently, NS3728, docetaxel or combinations of the two drugs were added for 72 hours before cell viability was determined. […] Each data point was carried out in triplicate.

[9] = tested on: SN-38 resistant HT29 CRC cancer cells
Experimental: (§5) The cells were seeded in 96-well plates (10,000 cells/well) and allowed to adhere for 24 hours. Subsequently, NS3728, OXP, SN-38 or combinations of the drugs were added for 48 hours before cell viability was determined. All values are expressed in percentage of untreated cells (named: “no treatment”). “DMSO” refers to the solvent control as both NS3728 and chemotherapeutic drugs are diluted in DMSO. Thus, the DMSO (Dimethyl sulfoxide) control is included to investigate any potential effect on cell viability by the organic solvent. Each data point was carried out in triplicate.

[10] = tested on: SN-38 resistant LoVo CRC cancer cells
Experimental: as §5

cancer cells = conditions: in vitro; cited from earlier work
[11] = tested on: SN-38 resistant LoVo CRC cancer cells; experiment: cells; conditions: Homo sapiens, 48 h, read-out: cell viability
Experimental: as §5

Experimental for HCT116 parental cells: (§6) The cells were seeded in 96-well plates (10,000 cells/well) and allowed to adhere for 24 hours. Subsequently, NS3728, OXP, SN-38 or combinations of NS3728 with one of the cytotoxic drugs were added for 48 hours before cell viability was determined. All values are expressed in percentage of untreated cells (named: “no treatment”). “DMSO” refers to the solvent control as both NS3728 and chemotherapeutic drugs are diluted in DMSO. Thus, the DMSO (Dimethyl sulfoxide) control is included to investigate any potential effect on cell viability by the organic solvent. Each data point was carried out in triplicate.
Experimental for HT29 parental cells: as §6
Experimental for LoVo parental cells: as §6

Compound: O=c1[nH]cc(F)c(=O)[nH]1 [5-flourouracil, 5-fluorouracil]
- tumour volume growth curves [1]: mild (non-significant) depression of the growth curves

Compound: O=S(=O)(O)c1cc(N=C=S)ccc1C=Cc1ccc(N=C=S)cc1S(=O)(=O)O [DIDS]
- IC50 (VRAC): 26000 nM

Compound: CC(=O)O[C@@]12CO[C@@H]1C[C@H](O)[C@@]1(C)C(=O)[C@H](O)C3=C(C)[C@@H](OC(=O)[C@H](O)[C@@H](NC(=O)OC(C)(C)C)c4ccccc4)C[C@@](O)([C@@H](OC(=O)c4ccccc4)[C@H]21)C3(C)C [Docetaxel, docetaxel, reference compound]
- cell viability ([2]; 65 nM Docetaxel monotherapy): did not decrease cell viability
- cell viability ([3]; 150 nM Docetaxel, 72 hours): about 50 % of untreated controls

Compound: C[C@]12CC[C@@H]3c4ccc(O)cc4C[C@@H](CCCCCCCCC[S+]([O-])CCCC(F)(F)C(F)(F)F)[C@H]3[C@@H]1CC[C@@H]2O (stereo partly drawn) [Fulvestrant, fulvestrant, reference compound]
- cell viability ([4]; 1 μM Fulvestrant, 72 hours): no effect on the cell viability

Compound: O=C(O)c1cc([N+](=O)[O-])ccc1NCCCc1ccccc1 [NPPB]
- IC50 (VRAC): 21000 nM

Compound: O=C(Nc1cccc(C(F)(F)F)c1)Nc1ccc(Br)cc1-c1nnn[nH]1 [NS3623]
- IC50 (VRAC): 1800 nM

Compound: O=C(Nc1cc(C(F)(F)F)cc(C(F)(F)F)c1)Nc1ccc(Br)cc1-c1nnn[nH]1 [NS3728]
- tumour growth rate / anti-tumor effect ([5]; 5 million C6 cells, flank of Fisher rats, NS3728 40 mg/kg/day oral, temozolomide 25 mg/kg/day, alone or combined, terminated day 4 of treatment): neither NS3728 (40 mg/kg/day) nor temozolomide (25 mg/kg/day) exhibited any significant anti-tumor effect
- tumour growth inhibition as measured by tumour weight (C6 glioma cells): significant inhibition of tumour growth
- tumour volume growth curves [1]: mild (non-significant) depression of the growth curves
- cell viability ([2]; 40 μM NS3728 monotherapy): did not decrease cell viability
- cell viability ([3]; 50 μM NS3728, 72 hours): did not decrease cell viability
- cell viability ([6]; 30 μM NS3728, 48 hours): about 85 % of untreated cells
- cell viability ([7]; 20 μM NS3728, 48 hours): about 85 % of untreated cells
- cell viability [8]: 70 % of untreated control
- cell viability ([4]; 40 μM NS3728, 72 hours): 60 % of untreated control
- cell viability (HCT116 parental cells; 40 μM NS3728, SN-38 experiment, 48 hours): about 50 % of untreated cells
- cell viability (HCT116 parental cells; 50 μM NS3728, SN-38 experiment, 48 hours): about 50 % of untreated cells
- cell viability (HCT116 parental cells; NS3728 alone in the OXP experiment (concentration not given in the sentence), 48 hours): about 50 % of untreated cells
- cell viability (HT29 parental cells; 40 μM NS3728, 48 hours): about 90 % of untreated cells
- cell viability (HT29 parental cells; 50 μM NS3728, 48 hours): about 77 % of untreated cells
- IC50 (VRAC): 400 nM
- cell viability (LoVo parental cells; 40 μM NS3728, 48 hours): about 45 % of untreated cells
- cell viability (LoVo parental cells; 50 μM NS3728, 48 hours): about 38 % of untreated cells
- cell viability ([9]; 30 μM NS3728, 48 hours (increased viability)): about 120 % of untreated cells
- cell viability ([9]; 40 μM NS3728, 48 hours): no effect on cell viability
- cell viability ([9]; 50 μM NS3728, 48 hours): about 85 % of untreated cells
- cell viability ([10]; 30 μM NS3728, 48 hours): about 80 % of untreated cells
- cell viability ([10]; 50 μM NS3728, 48 hours): about 50 % of untreated cells
- inhibition of cisplatin mediated apoptosis (cancer cells): inhibit cisplatin mediated apoptosis
- viability at 40 µM [11]: ~57%

Compound: O=C(Nc1ccc([N+](=O)[O-])cc1)Nc1ccc(Br)cc1-c1nnn[nH]1 [NS3749]
- IC50 (VRAC): 1400 nM

Compound: O=C1[O][Pt]2([NH][C@@H]3CCCC[C@H]3[NH]2)[O]C1=O [OXP, oxaliplatin, reference compound]
- cell viability (HCT116 parental cells; OXP alone, 48 hours): dose-dependently decreased cell viability

Compound: CCc1c2c(nc3ccc(O)cc13)-c1cc3c(c(=O)n1C2)COC(=O)[C@]3(O)CC [SN-38, reference compound]
- cell viability ([6]; 4 μM SN-38, 48 hours): almost no effect on cell viability
- cell viability ([7]; 0.1 μM SN-38, 48 hours): about 43 % of untreated cells
- cell viability (HCT116 parental cells; 0.16 μM SN-38, 48 hours): about 50 % of untreated cells
- cell viability (HT29 parental cells; 0.032 μM SN-38, 48 hours): about 77 % of untreated cells
- cell viability (LoVo parental cells; 0.0064 μM SN-38, 48 hours): about 53 % of untreated cells
- cell viability ([9]; 0.8 μM SN-38, 48 hours): about 78 % of untreated cells
- cell viability ([10]; 0.16 μM SN-38, 48 hours): about 78 % of untreated cells

Compound: CC(=O)O[C@H]1C(=O)[C@@]2(C)[C@H]([C@H](OC(=O)c3ccccc3)[C@]3(O)C[C@H](OC(=O)[C@H](O)[C@@H](NC(=O)c4ccccc4)c4ccccc4)C(C)=C1C3(C)C)[C@]1(OC(C)=O)CO[C@@H]1C[C@@H]2O [paclitaxel]
- tumour volume growth curves [1]: mild (non-significant) depression of the growth curves

Compound: Cn1nnc2c(C(N)=O)ncn2c1=O [temozolomide, reference compound]
- signs of toxicity (subdued behaviour, hunched appearance, loss of body weight) ([5]; all animals treated with temozolomide 25 mg/kg/day): Clear signs of toxicity
